Literature values in patent US20220401390A1, “TREATMENTS OF DIABETIC MACULAR EDEMA AND IMPAIRED VISUAL ACUITY” (KALVISTA PHARMACEUTICALS LIMITED, priority 2019, published 2022).

B1: ranibizumab: anti-VEGF therapy for DME currently in use (antibody, chains of the INN, looked up, V domains shown)
VH: EVQLVESGGGLVQPGGSLRLSCAASGYDFTHYGMNWVRQAPGKGLEWVGWINTYTGEPTYAADFKRRFTFSLDTSKSTAYLQMNSLRAEDTAVYYCAKYPYYYGTSHWYFDVWGQGTLVTVSS
VL: DIQLTQSPSSLSASVGDRVTITCSASQDISNYLNWYQQKPGKAPKVLIYFTSSLHSGVPSRFSGSGSGTDFTLTISSLQPEDFATYYCQQYSTVPWTFGQGTKVEIK
modifications: Fab
notes: anti-VEGF therapy for DME currently in use

Tests used:
diabetic rats = conditions: cited from earlier work
patients with DME = conditions: clinical trials, after one year; cited from earlier work

Row | Molecule | Retinal vascular permeability and retinal blood flow abnormalities (diabetic rats) | Efficacy compared with laser therapy (patients with DME)
1 | N=C(N)c1ccc(CNC(=O)c2cnn(Cc3ccccc3)c2)cc1 [ASP-440] | ameliorated | –
2 | aflibercept: anti-VEGF therapy for DME currently in use | – | more effective than laser therapy
3 | bevacizumab: anti-VEGF therapy for DME currently in use | – | more effective than laser therapy
4 | pegaptanib | – | more effective than laser therapy
5 | B1 | – | more effective than laser therapy
